Patent US7399869B2, “Fibroblast activation protein inhibitor compounds and methods” (Genentech, Inc., priority 2005, dated 2008)

What was measured:
Assay type in all cases: biochemical
[1] = biological target: T1, full-length (transmembrane) murine FAP (Mus musculus, UniProt P97321); test: Inhibition of murine FAP in cell lysate
T1 sequence (P97321 1-761): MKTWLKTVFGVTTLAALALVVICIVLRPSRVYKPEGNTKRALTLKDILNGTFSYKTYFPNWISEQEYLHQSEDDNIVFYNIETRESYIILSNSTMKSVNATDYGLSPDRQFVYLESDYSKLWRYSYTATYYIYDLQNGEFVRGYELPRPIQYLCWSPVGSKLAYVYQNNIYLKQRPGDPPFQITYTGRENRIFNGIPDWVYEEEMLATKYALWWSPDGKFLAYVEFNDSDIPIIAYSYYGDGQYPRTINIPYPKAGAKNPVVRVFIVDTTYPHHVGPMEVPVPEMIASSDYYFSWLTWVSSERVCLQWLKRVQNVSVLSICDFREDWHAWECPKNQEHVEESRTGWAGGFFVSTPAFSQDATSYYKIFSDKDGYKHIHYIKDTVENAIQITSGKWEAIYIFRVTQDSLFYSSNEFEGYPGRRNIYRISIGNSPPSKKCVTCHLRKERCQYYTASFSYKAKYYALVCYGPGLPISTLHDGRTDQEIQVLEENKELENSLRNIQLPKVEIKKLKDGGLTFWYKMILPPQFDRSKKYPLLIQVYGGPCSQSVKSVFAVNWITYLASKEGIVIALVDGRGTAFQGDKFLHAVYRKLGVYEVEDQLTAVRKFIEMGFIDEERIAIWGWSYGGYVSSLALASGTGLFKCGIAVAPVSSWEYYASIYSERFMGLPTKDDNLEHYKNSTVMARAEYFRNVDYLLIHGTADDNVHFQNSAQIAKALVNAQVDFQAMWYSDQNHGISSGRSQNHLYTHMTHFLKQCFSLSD

DPP-8 = biological target: T2, DPP-8 (Homo sapiens, UniProt Q6V1X1); test: Inhibition of DPP-8 by Ac-Gly-boroPro 5
T2 construct: 2-883 of DPP-8; FLAG (N); made in house; host or cells: 293 cells; template plasmid from Origene
T2 sequence (Q6V1X1 18-898 limits assumed): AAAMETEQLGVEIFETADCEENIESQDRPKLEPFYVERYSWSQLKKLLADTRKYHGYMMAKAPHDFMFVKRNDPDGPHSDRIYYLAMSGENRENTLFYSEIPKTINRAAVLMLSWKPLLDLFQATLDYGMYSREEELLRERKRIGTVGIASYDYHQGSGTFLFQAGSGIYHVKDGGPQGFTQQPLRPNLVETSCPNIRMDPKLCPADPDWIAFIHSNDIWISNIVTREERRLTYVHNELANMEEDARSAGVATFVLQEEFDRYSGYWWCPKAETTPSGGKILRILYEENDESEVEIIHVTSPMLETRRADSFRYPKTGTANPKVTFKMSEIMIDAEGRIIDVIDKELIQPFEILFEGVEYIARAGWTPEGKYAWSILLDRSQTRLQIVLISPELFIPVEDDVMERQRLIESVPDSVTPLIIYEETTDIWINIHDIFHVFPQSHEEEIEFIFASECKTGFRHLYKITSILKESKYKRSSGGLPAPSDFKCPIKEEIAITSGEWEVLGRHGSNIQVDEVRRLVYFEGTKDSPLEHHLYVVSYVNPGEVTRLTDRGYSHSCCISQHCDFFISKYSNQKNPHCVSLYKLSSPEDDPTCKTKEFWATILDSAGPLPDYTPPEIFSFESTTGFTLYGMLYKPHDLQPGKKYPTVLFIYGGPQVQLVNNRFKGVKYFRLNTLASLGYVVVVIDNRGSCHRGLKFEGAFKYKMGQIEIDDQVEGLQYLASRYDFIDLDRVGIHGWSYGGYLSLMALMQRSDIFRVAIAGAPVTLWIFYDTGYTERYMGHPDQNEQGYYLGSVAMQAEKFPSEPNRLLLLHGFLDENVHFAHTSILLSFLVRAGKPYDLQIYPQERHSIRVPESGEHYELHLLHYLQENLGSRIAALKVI
Method: (§1) To establish whether Ac-Gly-BoroPro 5 inhibits these prolyl peptidases, each protease was cloned, expressed and assayed to determine Km and Ki values and monitor their activity.
(§2) Briefly, proteases were added to a reaction mixture containing inhibitor and substrate (Ac-Ala-AMC for APH, Z-Gly-Pro-AMC for POP, and Ala-Pro-AFC for all others) in assay buffer at 23° C. Protease activity was followed continuously as described above to monitor time-dependent inhibition. Data were plotted as V0/Vi−1 versus [I], where V0 is the rate if substrate hydrolysis in the absence of inhibitor, Vi is the steady state rate of substrate hydrolysis in the presence of inhibitor and [I] is the concentration of Ac-Gly-BoroPro.
(§3) KI values for inhibition of proteases by 5 were determined using the method of progress curves. Briefly, proteases (10-100 nM) were added to a reaction mixture containing inhibitor 5 (0-10 μM) and substrate AP-AFC in assay buffer at 23° C. […] Ki, the true equilibrium inhibition constant was determined according to the following relationship: Ki=Kobs/(1+[S]/Km), where [S] is the concentration of substrate used in the assay and Km is the Michaelis constant for substrate cleavage. […]

APH = biological target: T3, APH (Homo sapiens, UniProt P13798); test: Inhibition of APH by Ac-Gly-boroPro 5; details: substrate Ac-Ala-AMC, 23° C., progress curves
T3 construct: 2-732 of APH; FLAG (N); made in house; host or cells: 293 cells; template plasmid from Origene
T3 sequence (P13798 2-732): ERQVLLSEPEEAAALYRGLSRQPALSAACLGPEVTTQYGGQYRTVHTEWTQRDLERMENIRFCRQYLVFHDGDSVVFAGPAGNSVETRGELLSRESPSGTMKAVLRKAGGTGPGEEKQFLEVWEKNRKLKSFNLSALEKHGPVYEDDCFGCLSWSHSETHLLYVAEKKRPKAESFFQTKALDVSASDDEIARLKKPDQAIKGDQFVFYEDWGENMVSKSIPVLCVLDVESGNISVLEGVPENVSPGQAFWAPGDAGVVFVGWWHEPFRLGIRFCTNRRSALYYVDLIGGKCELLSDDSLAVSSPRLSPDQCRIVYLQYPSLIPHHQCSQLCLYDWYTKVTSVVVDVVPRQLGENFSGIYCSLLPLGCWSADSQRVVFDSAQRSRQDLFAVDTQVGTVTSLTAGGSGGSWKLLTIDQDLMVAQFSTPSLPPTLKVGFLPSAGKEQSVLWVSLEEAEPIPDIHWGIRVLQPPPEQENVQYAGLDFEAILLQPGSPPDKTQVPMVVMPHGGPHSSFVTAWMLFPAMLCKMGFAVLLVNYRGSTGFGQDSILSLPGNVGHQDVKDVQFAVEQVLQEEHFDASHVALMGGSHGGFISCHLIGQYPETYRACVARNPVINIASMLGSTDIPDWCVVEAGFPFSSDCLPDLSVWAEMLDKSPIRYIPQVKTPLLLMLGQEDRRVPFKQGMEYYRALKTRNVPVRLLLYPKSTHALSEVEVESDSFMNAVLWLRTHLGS
Method: as §1, §2, §3

DPP-7 = biological target: T4, DPP-7 (Homo sapiens, UniProt Q9UHL4); test: Inhibition of DPP-7 by Ac-Gly-boroPro 5; details: substrate Ala-Pro-AFC, 23° C., progress curves
T4 construct: These constructs encoded amino acids 26-492 of DPP-7; FLAG (N); made in house; host or cells: 293 cells; template plasmid from Origene
Method: as §1, §2, §3

DPP-9 = biological target: T5, DPP-9 (Homo sapiens, UniProt Q86TI2); test: Inhibition of DPP-9 by Ac-Gly-boroPro 5
T5 construct: 2-864 of DPP-9; FLAG (N); made in house; host or cells: 293 cells; template plasmid from Origene
T5 sequence (Q86TI2 2-863 limits assumed): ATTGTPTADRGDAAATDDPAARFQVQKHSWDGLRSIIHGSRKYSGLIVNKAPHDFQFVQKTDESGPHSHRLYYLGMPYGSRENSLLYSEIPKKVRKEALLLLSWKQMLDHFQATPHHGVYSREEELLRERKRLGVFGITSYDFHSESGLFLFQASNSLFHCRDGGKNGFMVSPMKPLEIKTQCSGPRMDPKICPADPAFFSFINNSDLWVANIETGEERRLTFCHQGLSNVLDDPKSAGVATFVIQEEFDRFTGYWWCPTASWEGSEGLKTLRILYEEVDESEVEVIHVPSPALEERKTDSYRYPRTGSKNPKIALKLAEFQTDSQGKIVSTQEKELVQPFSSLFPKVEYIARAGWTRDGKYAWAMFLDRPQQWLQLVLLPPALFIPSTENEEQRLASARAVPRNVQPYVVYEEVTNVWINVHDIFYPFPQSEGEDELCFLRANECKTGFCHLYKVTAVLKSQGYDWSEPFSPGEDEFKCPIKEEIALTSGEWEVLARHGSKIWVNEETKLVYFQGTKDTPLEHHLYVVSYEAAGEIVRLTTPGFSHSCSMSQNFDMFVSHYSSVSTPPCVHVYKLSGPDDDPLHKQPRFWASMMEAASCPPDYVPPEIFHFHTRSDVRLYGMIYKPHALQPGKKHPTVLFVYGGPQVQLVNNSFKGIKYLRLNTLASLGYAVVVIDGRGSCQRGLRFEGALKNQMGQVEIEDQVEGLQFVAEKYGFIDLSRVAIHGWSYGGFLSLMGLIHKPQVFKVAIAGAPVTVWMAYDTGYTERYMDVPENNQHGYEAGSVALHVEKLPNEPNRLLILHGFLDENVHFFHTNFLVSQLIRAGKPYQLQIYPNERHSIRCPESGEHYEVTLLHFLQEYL
Method: as §1, §2, §3

[2] = substrate Ala-Pro-AFC, 23° C., progress curves

inhibits full-length (transmembrane) murine FAP at [1]: 117 nM | reactivity with DPP-8 (DPP-8): poor reactivity | Ki (DPP-8; [2]): 19.1 µM | Ki (APH): 0.575 µM | Ki (DPP-7): 125 µM | reactivity with DPP-9 (DPP-9): poor reactivity | Ki (DPP-9; [2]): 8.8 µM
Compound: CC(=O)NCC(=O)N1CCCC1B(O)O (stereo not shown) [N-Ac-Gly-boroPro 5, N-acetyl-gly-boroproline]
